According to patent publication US20220354957A1, “PEPTIDES TARGETING MACROPHAGES, AND CONJUGATES, COMPOSITIONS, AND USES THEREOF” (Twinpig Biolab, Inc., priority 2021, published 2022):

How the values were obtained:
M2 macrophages = experiment: Cell viability test (CCK-8) of dKLA-conjugated alanine-substituted peptides; assay type: cell-based, human; details: 1.5 μM, 1 hour then 24 hours, CCK-8, compared to control M2 macrophage
Procedure: (§1) THP-1 monocytes were differentiated into macrophages (M0) by 24 h incubation with 100 nM phorbol 12-myristate 13-acetate (PMA, Sigma) followed by 24 h incubation in RPMI medium (Invitrogen). Macrophages were polarized in M1 macrophages (M1) by incubation with 20 ng/ml of IFN-γ (Prospec) and 100ng/m1 of LPS (Sigma). Macrophage M2 polarization(M2) was obtained by incubation with 20 ng/ml of interleukin (IL) 4 (Prospec) and 20 ng/ml of interleukin 13 (Pro spec).
(§2) […] Cell viability was analyzed using the CCK-8 assay: CCK-8 reagent (Enzo Life Sciences) was added to each well; incubation was continued for 2 hours, and absorbance was measured at 450 nm with a microplate reader (Molecular Devices).

[1] = as above; assay type: cell-based, human; details: FIG. 25; read-out: cytotoxicity IC50 in M2 macrophages
Procedure: as §1, §2

[2] = tested on: TGF-β1-induced A549 cells cocultured with IL-4 and IL-13 induced THP-1 macrophages; experiment: In vitro lung fibrosis model, coculture; assay type: cell-based, human; details: 1.5 μM, cocultured with M2 polarization of THP-1
Procedure: THP-1 cells were purchased from the American Type Culture Collection (ATCC) and cultured according to their specific indications, using an RPMI 1640 medium supplemented with non-heat-treated 10% fetal bovine serum (FBS; WelGENE), 2 mM L-glutamine, 0.05 mM β-mercaptoethanol, 10 mM HEPES, 4500 mg/L glucose, 100 U/ml penicillin and 100 μg/ml streptomycin (Gibco). Human alveolar cell, A549 cells, obtained from the American Type Culture Collection (ATCC), were cultured in RPMI 1640 medium containing 2.05 mM L-glutamine, 2 g/liter sodium bicarbonate and 2 g/liter glucose (WelGENE) together with 10% FBS (WelGENE), 100 U/ml penicillin and 100 μg/m1 streptomycin (Gibco). Cells were cultured at 37° C. in a 5% CO2 humidified incubator to reach 80% of confluence.
THP-1 cells are differentiated into macrophages by 24 h incubation with 100 nM phorbol 12-myristate 13-acetate (PMA, Sigma) followed by 24 h incubation in RPMI medium (Invtrogen). […]
Total RNA was extracted using Easy-Blue reagent. Concentrations of RNA were determined and quantified by measuring absorbance at 260 and 280 nm with a spectrophotometer. […] PCR conditions were forty-five cycles at 95° C. for 5 min, followed by 95° C. for 10 sec, 60° C. for 10 sec and 72° C. for 10 sec. mRNA expression were quantified in triplicate. Data were measured with CFX Software (Bio-Rad). […]

M2-like TAMs = experiment: FACS of tumor macrophages and CD8+ T cells in mouse model of melanoma; assay type: in vivo; details: vs PBS group
Text: BALB/c and C57BL/6 (B6) wild-type mice were purchased from DBL. For the subcutaneous tumor model of melanoma and prostate cancer, CT26 (3×10^5 cells/mouse), B16F10 (1×10^6 cells/mouse) and TRAMP-C2 cells (1×10^6 cells/mouse) were mixed with Matrigel matrix (Corning) and inoculated subcutaneously into the right flank of the mice, and 4T1 (1×10^5 cells/mouse) cells mixed with Matrigel matrix and inoculated into a 4th mammary fat pad of the mice. TAMpepK, and MpepK peptides (200 nmol/kg) were injected intraperitoneally every 3 days, beginning at day 7 after tumor inoculation, and tumor volume was measured by electronic caliper. All tumor tissues were harvested after the end of the study and tumor weight was measured by an electronic balance.
THP-1 cells were differentiated into macrophages by a 24 h incubation with 100 nM PMA and polarized in M2 macrophages by incubation with 20 ng/ml of IL-4 and 20 ng/ml of IL-13 for 72 h. Polarized cells were treated with 50 nM TAMpep and fragments of TAMpep or Mpep and alanine library of Mpep conjugated with FITC for 1 h. To test change of macrophage population in melanoma tissue, the single cells were isolated from tumor tissue through a 40 μm nylon mesh strainer after dissociation by DNase I (1 U/mL) and collagenase D (1 mg/ml). Cells were detected on BD FACSCalibur and BD FACSCantoII instruments and analyzed by FlowJo software.

CC[C@H](C)[C@H](NC(=O)[C@H](CC(C)C)NC(=O)[C@H](C)NC(=O)[C@@H]1CCCN1C(=O)[C@H](CC(C)C)NC(=O)CNC(=O)[C@@H](NC(=O)[C@@H](NC(=O)[C@H](CC(C)C)NC(=O)[C@@H](NC(C)=O)C(C)C)[C@@H](C)O)[C@@H](C)O)C(=O)N[C@@H](CO)C(=O)N[C@@H](Cc1c[nH]c2ccccc12)C(=O)N[C@H](C(=O)N[C@@H](CCCCN)C(=O)N[C@@H](CCCNC(=N)N)C(=O)N[C@@H](CCCCN)C(=O)N[C@@H](CCCNC(=N)N)C(=O)N[C@@H](CCC(N)=O)C(=O)N[C@@H](CCC(N)=O)C(=O)NCC(=O)NCC(=O)NCC(=O)NCC(=O)N[C@@H](CO)C(=O)N[C@H](CCCCN)C(=O)N[C@H](CC(C)C)C(=O)N[C@H](C)C(=O)N[C@H](CCCCN)C(=O)N[C@H](CC(C)C)C(=O)N[C@H](C)C(=O)N[C@H](CCCCN)C(=O)N[C@H](CCCCN)C(=O)N[C@H](CC(C)C)C(=O)N[C@H](C)C(=O)N[C@H](CCCCN)C(=O)N[C@H](CC(C)C)C(=O)N[C@H](C)C(=O)N[C@H](CCCCN)C(=O)O)[C@@H](C)CC [MpepK]
cytotoxic effect in M2 macrophages (M2 macrophages): significant cytotoxic effects
IC50 [1]: 1120 nM
inhibitory effect on EMT and FMT of epithelial cells [2]: no significant inhibitory effect
exhaustion markers, such as PD-1 and LAGS, in CD8+ T cells (M2-like TAMs; melanoma model): significantly reduced
M1-like TAMs (F4/80+ and CD86+ cells) (M2-like TAMs; melanoma tumor tissue): no change
M1/M2 ratio (M2-like TAMs; melanoma tumor tissue): significantly increased
M2-like TAMs (F4.80+ and CD206+ cells) (M2-like TAMs; melanoma tumor tissue): reduced
